Test results reported in PMC3038857, “Using Nuclear Receptor Activity to Stratify Hepatocarcinogens” (PLoS ONE, 2011).
Like-named read-outs stand apart in the source and are kept apart here.

Assays:
[1] = target: T1, PPARD (peroxisome proliferator-activated receptor delta) (Homo sapiens, UniProt Q03181); assay: ATG_PPARd_TRANS: Factorial reporter gene assay (HepG2); format: cell-based; set-up: scale not given here; settings: scale not given, looks like -log10 of molar active concentration, 0 = no activity
T1 construct: expressed in transfected cells; host or cells: HepG2
T1 sequence (Q03181 1-441): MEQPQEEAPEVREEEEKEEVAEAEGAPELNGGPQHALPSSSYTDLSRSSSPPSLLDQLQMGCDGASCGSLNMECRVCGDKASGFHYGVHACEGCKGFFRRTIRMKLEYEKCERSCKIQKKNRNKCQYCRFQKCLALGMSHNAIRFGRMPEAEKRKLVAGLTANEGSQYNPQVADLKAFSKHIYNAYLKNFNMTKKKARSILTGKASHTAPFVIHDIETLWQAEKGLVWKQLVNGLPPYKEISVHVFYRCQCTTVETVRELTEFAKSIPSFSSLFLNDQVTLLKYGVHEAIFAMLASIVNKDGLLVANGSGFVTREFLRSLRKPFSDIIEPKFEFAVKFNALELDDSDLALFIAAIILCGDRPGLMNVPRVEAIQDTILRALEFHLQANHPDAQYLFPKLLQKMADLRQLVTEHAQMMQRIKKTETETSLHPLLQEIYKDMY
Protocol: A multiple reporter transcription unit (MRTU) library consisting of 48 transcription factor binding sites was transfected into the HepG2 human liver hepatoma cell line. In addition to the cis-acting reporter genes (CIS), a modification of the approach was used to generate a trans-system (TRANS) with a mammalian one-hybrid assay consisting of an additional 25 MRTU library reporting the activity of nuclear receptor super-family members. […] These assays were performed by Attagene Inc. (Morrisville NC) under contract to EPA.
In addition to the cis-acting reporter genes (CIS), a modification of the approach was used to generate a trans-system (TRANS) with a mammalian one-hybrid assay consisting of an additional 25 MRTU library reporting the activity of nuclear receptor super-family members. […] Chemicals were then tested in the CIS and TRANS assays at seven concentrations starting at the MTC and followed by three-fold serial dilutions. These assays were performed by Attagene Inc. (Morrisville NC) under contract to EPA. Detailed description of the methods, data and analysis methods for this dataset will be presented in a separate publication.

[2] = target: T2, AR (androgen receptor) (Homo sapiens, UniProt P10275); assay: NCGC_AR_Agonist: GAL4 BLAM Reporter gene assay: AR; format: cell-based; settings: agonist mode; scale not given, looks like -log10 of molar active concentration; 0 = no activity
T2 construct: expressed in transfected cells
T2 sequence (P10275 1-920): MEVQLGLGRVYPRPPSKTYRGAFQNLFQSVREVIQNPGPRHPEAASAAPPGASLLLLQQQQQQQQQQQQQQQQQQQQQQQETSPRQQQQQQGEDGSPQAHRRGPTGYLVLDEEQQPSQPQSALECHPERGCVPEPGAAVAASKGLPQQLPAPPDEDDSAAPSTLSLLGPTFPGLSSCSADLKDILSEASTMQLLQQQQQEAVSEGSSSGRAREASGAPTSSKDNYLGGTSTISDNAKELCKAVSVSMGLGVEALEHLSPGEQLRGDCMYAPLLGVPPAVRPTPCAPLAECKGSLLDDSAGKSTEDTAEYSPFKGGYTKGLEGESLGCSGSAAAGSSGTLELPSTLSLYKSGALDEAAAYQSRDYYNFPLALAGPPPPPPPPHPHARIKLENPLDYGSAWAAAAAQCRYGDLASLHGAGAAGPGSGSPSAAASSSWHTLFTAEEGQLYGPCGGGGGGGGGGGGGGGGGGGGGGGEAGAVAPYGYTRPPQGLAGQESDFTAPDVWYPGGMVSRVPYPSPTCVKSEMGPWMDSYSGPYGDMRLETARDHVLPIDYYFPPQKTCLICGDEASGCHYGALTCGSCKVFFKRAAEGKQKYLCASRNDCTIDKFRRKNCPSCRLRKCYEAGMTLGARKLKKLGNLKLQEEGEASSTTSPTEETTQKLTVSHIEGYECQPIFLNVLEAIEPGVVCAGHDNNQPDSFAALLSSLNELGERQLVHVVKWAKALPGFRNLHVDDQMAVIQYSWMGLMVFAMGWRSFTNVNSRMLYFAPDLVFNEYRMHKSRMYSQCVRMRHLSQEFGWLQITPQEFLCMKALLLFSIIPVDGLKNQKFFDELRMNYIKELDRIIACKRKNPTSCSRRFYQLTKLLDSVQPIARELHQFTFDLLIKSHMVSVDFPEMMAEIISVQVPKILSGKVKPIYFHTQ
Protocol: (§1) These assays measure binding constants and enzyme inhibition values for nuclear receptors. The targets include [drawing 67] , [drawing 68] , [drawing 69] , [drawing 70] , [drawing 71] , [drawing 72] , [drawing 73] , [drawing 74] , [drawing 75] and [drawing 76] . Each of the nuclear receptor targets was measured in agonist mode. Assays were run at the NIH Chemical Genomics Center (Rockville, MD).
(§2) Cell-based HTS Assays: These assays measuring binding constants and enzyme inhibition values for nuclear receptors. The targets include AR, ER, FXR, LXR, PPARα, PPARδ, PPARγ, RXRα, RXRβ and PXR. Each of the nuclear receptor targets was measured in both agonist and antagonist mode, but the antagonist data is still undergoing analysis due to possible interference between cytotoxicity and assay activity, so antagonist mode data were not used in the present analysis. Assays were run at the NIH Chemical Genomics Center (Rockville, MD) as part of the Tox21 collaboration. […] The R^2 was required to be ≥0.5. Values where only the highest concentration exceeded 50% activity were excluded to eliminate weak or false positives. Detailed description of the methods, data and analysis methods for this dataset will be presented in a separate publication.

[3] = target: T2, AR (androgen receptor); assay: NCGC_AR_Antagonist: GAL4 BLAM Reporter gene assay: AR; format: cell-based; settings: antagonist mode
Protocol: as §1, §2

[4] = tested on: Mouse Liver; settings: ref ToxRefDB, cited from earlier work
[5] = scale not given, looks like -log10 of molar active concentration, 0 = no activity
[6] = mouse chronic study, liver, neoplastic lesion, coded 6 / Inf / 0, code not explained here

Structure (SMILES)	ATG_PPARd_TRANS [1]	NCGC_AR_Agonist [2]	NCGC_AR_Antagonist [3, 5]	CHR_Mouse_Liver_3_NeoplasticLesion [4, 6]	also measured
CCSC(=O)N(CC(C)C)CC(C)C [r49]	0	0	0		
O=C1C2CC=CCC2C(=O)N1SC(Cl)(Cl)Cl (stereo not drawn) [r51]	0				
Cc1c(COC(=O)C2C(/C=C(\Cl)C(F)(F)F)C2(C)C)cccc1-c1ccccc1 (stereo not drawn) [r39]	0			6	
CC(C)OC(=O)Nc1cccc(Cl)c1 [r59]	0				
CNC(=O)Oc1cccc2ccccc12 [r52]	0			6	
CC(C)(c1ccc(O)cc1)c1ccc(O)cc1 [r40]	0	0	4.137		
O=C(Nc1ccccc1-c1ccc(Cl)cc1)c1cccnc1Cl [r42]	0				
CCCC1COC(Cn2cncn2)(c2ccc(Cl)cc2Cl)O1 (stereo not drawn) [r262]					CHR_Mouse_Liver_3_NeoplasticLesion ([4]; mouse, chronic study): 6
CC1=C(C(=O)Nc2ccccc2)SCCO1 [r53]	0	0	0		
CC(C)=CC1C(C(=O)OCc2coc(Cc3ccccc3)c2)C1(C)C (stereo not drawn) [r280]					CHR_Mouse_Liver_3_NeoplasticLesion ([4]; chronic study, mouse liver): 6
Nc1cnn(-c2ccccc2)c(=O)c1Cl [r56]	0				
OB(O)O [r41]	0				
C=CCOC(=O)C(C)(C)OC(=O)c1cc(-n2c(=O)cc(C(F)(F)F)n(C)c2=O)ccc1Cl [r47]	0				
CCCCOCN(C(=O)CCl)c1c(CC)cccc1CC [r46]	0	0	4.347		
CC(C)N1C(=O)c2ccccc2NS1(=O)=O [r37]	0			6	
COC(=O)c1ccccc1CS(=O)(=O)NC(=O)Nc1nc(OC)cc(OC)n1 [r33]	0				
CC(C)Oc1cc(-n2nc(C(C)(C)C)oc2=O)c(Cl)cc1Cl [row 225]					NCGC_AR_Antagonist [3]: 4.167; CHR_Mouse_Liver_3_NeoplasticLesion ([4]; chronic mouse study, liver): 6
CCC(C)n1c(=O)[nH]c(C)c(Br)c1=O (stereo not drawn) [r43]				6	
COc1ccc(-c2ccccc2)cc1NNC(=O)OC(C)C [r38]		0	0	6	
CC(C)N1C(=O)N(c2ccccc2)CS/C1=N\C(C)(C)C [r45]	0	0	0	6	
Cc1ccccc1CO[C@@H]1C[C@@]2(C(C)C)CC[C@]1(C)O2 [r64]	0	0	0	6	
CCC(C)Nc1c([N+](=O)[O-])cc(C(C)(C)C)cc1[N+](=O)[O-] (stereo not drawn) [r48]	0				
CCOC(=O)C(Cl)Cc1cc(-n2nc(C)n(C(F)F)c2=O)c(F)cc1Cl (stereo not drawn) [r54]	0				
N#Cc1cc(Br)c(O)c(Br)c1 [r44]	0	0	0	6	
N#Cc1c(Cl)c(Cl)c(Cl)c(C#N)c1Cl [r58]	0				
